Consider 2 molecules from ChEMBL document CHEMBL1649584, “Overexpression of the naturally occurring blaOXA-51 gene in Acinetobacter baumannii mediated by novel insertion sequence ISAba9” (2009).

Holding throughout (type): functional
The subject of assay [1] is Acinetobacter baumannii. The experiment in a line: Antimicrobial activity against Acinetobacter baumannii isolate Ab185 overexpressing beta-lactamase OXA-51 gene mediated by novel insertion sequence ISAba9.
For assay [2], the system named is Acinetobacter baumannii. In words: Antimicrobial activity against Acinetobacter baumannii isolate Ab177 overexpressing beta-lactamase OXA-51 gene mediated by novel insertion sequence ISAba9.
The test system of assay [3] is Acinetobacter baumannii. In words: Antimicrobial activity against Acinetobacter baumannii isolate Ab168 overexpressing beta-lactamase OXA-51 gene mediated by novel insertion sequence ISAba9.
Assay [4] has as its system Acinetobacter baumannii. The experiment in a line: Antimicrobial activity against Acinetobacter baumannii isolate Ab108 overexpressing beta-lactamase OXA-51 gene mediated by novel insertion sequence ISAba9.
For assay [5], the system named is Acinetobacter baumannii. The experiment in a line: Antimicrobial activity against Acinetobacter baumannii isolate Ab33 overexpressing beta-lactamase OXA-51 gene mediated by novel insertion sequence ISAba9.
Assay [6] relates to Acinetobacter baumannii. The experiment in a line: Antimicrobial activity against Acinetobacter baumannii isolate Ab114 overexpressing beta-lactamase OXA-51 gene mediated by novel insertion sequence ISAba9.
Assay [7] concerns Acinetobacter baumannii. In words: Antimicrobial activity against Acinetobacter baumannii isolate Ab5 overexpressing beta-lactamase OXA-51 gene mediated by novel insertion sequence ISAba9.
In assay [8] the test system is Acinetobacter baumannii. In words: Antimicrobial activity against Acinetobacter baumannii isolate Ab181 overexpressing beta-lactamase OXA-51 gene mediated by novel insertion sequence ISAba9.
Assay [9] concerns Acinetobacter baumannii. In words: Antimicrobial activity against Acinetobacter baumannii isolate Ab133 overexpressing beta-lactamase OXA-51 gene mediated by novel insertion sequence ISAba9.
For assay [10], the system named is Acinetobacter baumannii. The experiment in a line: Antimicrobial activity against Acinetobacter baumannii isolate Ab11 overexpressing beta-lactamase OXA-51 gene mediated by novel insertion sequence ISAba9.
Assay [11] has as its system Acinetobacter baumannii. The experiment in a line: Antimicrobial activity against Acinetobacter baumannii isolate Ab58 overexpressing beta-lactamase OXA-51 gene mediated by novel insertion sequence ISAba9.
For assay [12], the system named is Acinetobacter baumannii. In words: Antimicrobial activity against Acinetobacter baumannii isolate Ab3 overexpressing beta-lactamase OXA-51 gene mediated by novel insertion sequence ISAba9.
The test system of assay [13] is Acinetobacter baumannii. In words: Antimicrobial activity against Acinetobacter baumannii isolate Ab150 overexpressing beta-lactamase OXA-51 gene mediated by novel insertion sequence ISAba9.
In assay [14] the test system is Acinetobacter baumannii. The experiment in a line: Antimicrobial activity against Acinetobacter baumannii isolate Ab153 overexpressing beta-lactamase OXA-51 gene mediated by novel insertion sequence ISAba9.
The subject of assay [15] is Acinetobacter baumannii. The experiment in a line: Antimicrobial activity against Acinetobacter baumannii isolate Ab91 overexpressing beta-lactamase OXA-51 gene mediated by novel insertion sequence ISAba9.
In assay [16] the test system is Acinetobacter baumannii. In words: Antimicrobial activity against Acinetobacter baumannii isolate Ab2 overexpressing beta-lactamase OXA-51 gene mediated by novel insertion sequence ISAba9.
Assay [17] relates to Acinetobacter baumannii. In words: Antimicrobial activity against Acinetobacter baumannii isolate Ab63 overexpressing beta-lactamase OXA-51 gene mediated by novel insertion sequence ISAba9.
Assay [18] has as its system Acinetobacter baumannii. The experiment in a line: Antimicrobial activity against Acinetobacter baumannii isolate Ab30 overexpressing beta-lactamase OXA-51 gene mediated by novel insertion sequence ISAba9.
Assay [19] relates to Acinetobacter baumannii. In words: Antimicrobial activity against Acinetobacter baumannii isolate Ab23 overexpressing beta-lactamase OXA-51 gene mediated by novel insertion sequence ISAba9.
The subject of assay [20] is Acinetobacter baumannii. The experiment in a line: Antimicrobial activity against Acinetobacter baumannii isolate Ab12 overexpressing beta-lactamase OXA-51 gene mediated by novel insertion sequence ISAba9.

Structures are written as SMILES. Values after ≈ are worked out from the molar mass of the structure shown.

One may read the MIC as the least concentration at which growth counts as inhibited. The low end stands for inhibition by little substance, the high end for a need for much substance. On to `C[C@@H](O)[C@H]1C(=O)N2C(C(=O)O)=C(S[C@@H]3CN[C@H](C(=O)N(C)C)C3)[C@H](C)[C@H]12` [MEROPENEM], for which the minimum inhibitory concentration (MIC) in the assay with Acinetobacter baumannii [1] was found to be 24 µg/mL (≈ 62.6 µM); in the assay with Acinetobacter baumannii [2], 8 µg/mL (≈ 20.9 µM); in the assay on Acinetobacter baumannii [3], 12 µg/mL (≈ 31.3 µM); against Acinetobacter baumannii [4] it was 16 µg/mL (≈ 41.7 µM); in the assay with Acinetobacter baumannii [5], 64 µg/mL (≈ 167 µM); against Acinetobacter baumannii [6] it was 16 µg/mL (≈ 41.7 µM). The minimum inhibitory concentration (MIC) in the assay on Acinetobacter baumannii [7] was 64 µg/mL (≈ 167 µM); against Acinetobacter baumannii [8] it was 32 µg/mL (≈ 83.4 µM); against Acinetobacter baumannii [9] it was 8 µg/mL (≈ 20.9 µM); in the assay with Acinetobacter baumannii [10], 64 µg/mL (≈ 167 µM); in the assay with Acinetobacter baumannii [11], 16 µg/mL (≈ 41.7 µM); in the assay on Acinetobacter baumannii [12], 8 µg/mL (≈ 20.9 µM). Moreover, the MIC in the assay on Acinetobacter baumannii [13] stood at 16 µg/mL (≈ 41.7 µM); against Acinetobacter baumannii [14] it was 16 µg/mL (≈ 41.7 µM); in the assay on Acinetobacter baumannii [15], 16 µg/mL (≈ 41.7 µM); against Acinetobacter baumannii [16] it was 4 µg/mL (≈ 10.4 µM); against Acinetobacter baumannii [17], 16 µg/mL (≈ 41.7 µM); against Acinetobacter baumannii [18] it was 64 µg/mL (≈ 167 µM). In addition, the MIC in the assay with Acinetobacter baumannii [19] and in the assay with Acinetobacter baumannii [20] was 64 µg/mL (≈ 167 µM) throughout.

Regarding `C[C@@H](O)[C@H]1C(=O)N2C(C(=O)O)=C(SCCNC=N)C[C@H]12` [IMIPENEM ANHYDROUS], the minimum inhibitory concentration (MIC) against Acinetobacter baumannii [1] worked out at 24 µg/mL (≈ 80.2 µM); in the assay with Acinetobacter baumannii [2], 8 µg/mL (≈ 26.7 µM); against Acinetobacter baumannii [3], 12 µg/mL (≈ 40.1 µM); against Acinetobacter baumannii [4], 16 µg/mL (≈ 53.4 µM); in the assay on Acinetobacter baumannii [5] it was 64 µg/mL (≈ 214 µM); with Acinetobacter baumannii [6], 16 µg/mL (≈ 53.4 µM). The MIC was determined as 64 µg/mL (≈ 214 µM) against Acinetobacter baumannii [7]; 32 µg/mL (≈ 107 µM) in the assay on Acinetobacter baumannii [8]; 8 µg/mL (≈ 26.7 µM) in the assay with Acinetobacter baumannii [9]; 64 µg/mL (≈ 214 µM) with Acinetobacter baumannii [10]; 16 µg/mL (≈ 53.4 µM) against Acinetobacter baumannii [11]; 8 µg/mL (≈ 26.7 µM) against Acinetobacter baumannii [12]. Besides, the MIC is 16 µg/mL (≈ 53.4 µM) against Acinetobacter baumannii [13]; 16 µg/mL (≈ 53.4 µM) against Acinetobacter baumannii [14]; 16 µg/mL (≈ 53.4 µM) with Acinetobacter baumannii [15]; 4 µg/mL (≈ 13.4 µM) with Acinetobacter baumannii [16]; 16 µg/mL (≈ 53.4 µM) with Acinetobacter baumannii [17]; 64 µg/mL (≈ 214 µM) against Acinetobacter baumannii [18]. Besides, the MIC against Acinetobacter baumannii [19] and in the assay with Acinetobacter baumannii [20] was 64 µg/mL (≈ 214 µM) throughout.
